Laboratory results as given in patent US12539292B2, “BRM targeting compounds and associated methods of use” (Arvinas Operations, Inc., priority 2018, dated 2026).

Molecular target: T1, BRM (Homo sapiens, UniProt P51531)
T1 construct: In-Cell Western Screen of BRM Degradation in SW1573 Cells; endogenous in cells; host or cells: SW1573
Test: In-cell Western screen of BRM degradation in SW1573 cells (Dmax and DC50)
Type: cell-based
Details: for DC50: target protein degradation, read-out: BRM DC50; for Dmax: SW1573, read-out: BRM Dmax (%)
Outline: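 Near-infrared imaging on a LI-COR Odyssey (800 and 680 nm channels) quantifies BRM remaining in fixed SW1573 cells. Cells are dosed for 18-20 h at 0.1% final DMSO, and degradation is expressed as Dmax and DC50.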

[1] = % degraded, when tested at the top concentration of between 0.3 and 10 μM

T1 sequence (P51531 whole entry): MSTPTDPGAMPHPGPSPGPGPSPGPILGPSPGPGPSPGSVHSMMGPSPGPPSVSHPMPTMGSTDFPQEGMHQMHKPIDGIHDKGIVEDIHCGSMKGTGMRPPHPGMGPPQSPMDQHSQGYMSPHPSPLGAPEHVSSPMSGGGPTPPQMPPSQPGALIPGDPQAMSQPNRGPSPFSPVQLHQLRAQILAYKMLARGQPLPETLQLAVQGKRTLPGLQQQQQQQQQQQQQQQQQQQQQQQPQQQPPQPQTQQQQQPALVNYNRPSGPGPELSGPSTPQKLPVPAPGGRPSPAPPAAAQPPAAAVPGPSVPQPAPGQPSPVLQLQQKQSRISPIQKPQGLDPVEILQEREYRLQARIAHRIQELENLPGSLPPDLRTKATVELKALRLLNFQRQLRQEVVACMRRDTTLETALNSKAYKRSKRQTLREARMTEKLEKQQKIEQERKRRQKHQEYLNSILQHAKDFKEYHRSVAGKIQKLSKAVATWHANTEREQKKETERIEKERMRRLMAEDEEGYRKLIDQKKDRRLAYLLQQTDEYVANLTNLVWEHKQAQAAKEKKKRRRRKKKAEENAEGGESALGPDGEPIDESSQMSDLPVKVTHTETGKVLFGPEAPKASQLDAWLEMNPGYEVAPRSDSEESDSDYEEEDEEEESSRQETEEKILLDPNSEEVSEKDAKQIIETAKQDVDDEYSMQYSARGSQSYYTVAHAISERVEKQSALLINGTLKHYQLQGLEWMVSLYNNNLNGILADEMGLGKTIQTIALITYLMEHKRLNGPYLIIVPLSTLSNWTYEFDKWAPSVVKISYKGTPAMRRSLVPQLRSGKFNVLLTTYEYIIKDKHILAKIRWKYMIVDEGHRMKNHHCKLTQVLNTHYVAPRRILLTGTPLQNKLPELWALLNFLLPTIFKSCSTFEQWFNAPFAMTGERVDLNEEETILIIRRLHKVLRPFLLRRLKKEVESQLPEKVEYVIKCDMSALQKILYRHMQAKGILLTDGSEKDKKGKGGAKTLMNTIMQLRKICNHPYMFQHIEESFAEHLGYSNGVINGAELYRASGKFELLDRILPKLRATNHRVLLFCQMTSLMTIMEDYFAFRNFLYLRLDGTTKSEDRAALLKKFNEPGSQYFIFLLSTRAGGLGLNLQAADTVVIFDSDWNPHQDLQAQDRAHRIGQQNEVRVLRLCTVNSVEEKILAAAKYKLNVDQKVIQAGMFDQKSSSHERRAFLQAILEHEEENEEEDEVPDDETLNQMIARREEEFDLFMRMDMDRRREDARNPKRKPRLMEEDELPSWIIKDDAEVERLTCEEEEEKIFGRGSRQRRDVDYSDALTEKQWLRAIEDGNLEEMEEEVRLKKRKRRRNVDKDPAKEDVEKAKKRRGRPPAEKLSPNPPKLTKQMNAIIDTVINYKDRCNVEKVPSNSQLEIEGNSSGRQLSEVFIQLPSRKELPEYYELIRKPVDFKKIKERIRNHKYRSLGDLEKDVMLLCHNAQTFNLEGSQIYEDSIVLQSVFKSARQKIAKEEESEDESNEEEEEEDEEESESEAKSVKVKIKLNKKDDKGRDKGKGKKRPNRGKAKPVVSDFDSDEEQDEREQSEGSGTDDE

| Compound | BRM Dmax (%) [1] | DC50 [µM] | Dmax [1] [%] |
| --- | --- | --- | --- |
| Cc1ncsc1-c1ccc([C@H](C)NC(=O)[C@@H]2C[C@@H](O)CN2C(=O)[C@@H](c2cc(OCC#CC34CC(CN[C@H]5C[C@H](Oc6cc(N7C8CC[C@@H]7CN(c7cc(-c9ccccc9O)nnc7N)C8)ccn6)C5)(C3)C4)no2)C(C)C)cc1 [compound 382, (2S,4R)-1-((2R)-2-(3-((3-(3-((((1r,3R)-3-((4-(3-(3-amino-6-(2-hydroxyphenyl)pyridazin-4-yl)-3,8-diazabicyclo[3.2.1]octan-8-yl)pyridin-2-yl)oxy)cyclobutyl)amino)methyl)bicyclo[1.1.1]pentan-1-yl)prop-2-yn-1-yl)oxy)isoxazol-5-yl)-3-methylbutanoyl)-4-hydroxy-N-((S)-1-(4-(4-methylthiazol-5-yl)phenyl)ethyl)pyrrolidine-2-carboxamide] | A (A > 75) | < 0.0025 |  |
| Cc1ncsc1-c1ccc([C@H](C)NC(=O)[C@@H]2C[C@@H](O)CN2C(=O)[C@@H](c2cc(OCC#CC34CC(CN5CC(Oc6cc(N7C8CCC7CN(c7cc(-c9ccccc9O)nnc7N)C8)ccn6)C5)(C3)C4)no2)C(C)C)cc1 [compound 383, (2S,4R)-1-((2R)-2-(3-((3-(3-((3-((4-(3-(3-amino-6-(2-hydroxyphenyl)pyridazin-4-yl)-3,8-diazabicyclo[3.2.1]octan-8-yl)pyridin-2-yl)oxy)azetidin-1-yl)methyl)bicyclo[1.1.1]pentan-1-yl)prop-2-yn-1-yl)oxy)isoxazol-5-yl)-3-methylbutanoyl)-4-hydroxy-N-((S)-1-(4-(4-methylthiazol-5-yl)phenyl)ethyl)pyrrolidine-2-carboxamide] |  | > 0.03 | > 75 |
| Cc1ncsc1-c1ccc([C@H](C)NC(=O)[C@@H]2C[C@@H](O)CN2C(=O)[C@H](c2cc(OCCCN3CCN(CCCOc4cc(N5C6CCC5CN(c5cc(-c7ccccc7O)nnc5N)C6)ccn4)CC3)no2)C(C)C)cc1 [compound 384, (2S,4R)-1-((2S)-2-(3-(3-(4-(3-((4-(3-(3-amino-6-(2-hydroxyphenyl)pyridazin-4-yl)-3,8-diazabicyclo[3.2.1]octan-8-yl)pyridin-2-yl)oxy)propyl)piperazin-1-yl)propoxy)isoxazol-5-yl)-3-methylbutanoyl)-4-hydroxy-N-((S)-1-(4-(4-methylthiazol-5-yl)phenyl)ethyl)pyrrolidine-2-carboxamide] |  | 0.0025 to 0.01 | > 75 |
| Cc1ncsc1-c1ccc([C@H](C)NC(=O)[C@@H]2C[C@@H](O)CN2C(=O)[C@@H](c2cc(OCCCN3CCN(CCCOc4cc(N5C6CCC5CN(c5cc(-c7ccccc7O)nnc5N)C6)ccn4)CC3)no2)C(C)C)cc1 [compound 385, (2S,4R)-1-((2R)-2-(3-(3-(4-(3-((4-(3-(3-amino-6-(2-hydroxyphenyl)pyridazin-4-yl)-3,8-diazabicyclo[3.2.1]octan-8-yl)pyridin-2-yl)oxy)propyl)piperazin-1-yl)propoxy)isoxazol-5-yl)-3-methylbutanoyl)-4-hydroxy-N-((S)-1-(4-(4-methylthiazol-5-yl)phenyl)ethyl)pyrrolidine-2-carboxamide] |  | < 0.0025 | > 75 |
| CC(C)[C@H](C(=O)N1C[C@H](O)C[C@H]1C(=O)N[C@@H](C)c1ccc(C#N)cc1)c1cc(OCC#Cc2ncc(O[C@H]3C[C@H](Oc4cc(N5C6CCC5CN(c5cc(-c7ccccc7O)nnc5N)C6)ccn4)C3)cn2)no1 [compound 386, (2S,4R)-1-((2S)-2-(3-((3-(5-((1r,3S)-3-((4-(3-(3-amino-6-(2-hydroxyphenyl)pyridazin-4-yl)-3,8-diazabicyclo[3.2.1]octan-8-yl)pyridin-2-yl)oxy)cyclobutoxy)pyrimidin-2-yl)prop-2-yn-1-yl)oxy)isoxazol-5-yl)-3-methylbutanoyl)-N-((S)-1-(4-cyanophenyl)ethyl)-4-hydroxypyrrolidine-2-carboxamide] |  | 0.01 to 0.03 | > 75 |
| CC(C)[C@@H](C(=O)N1C[C@H](O)C[C@H]1C(=O)N[C@@H](C)c1ccc(C#N)cc1)c1cc(OCC#Cc2ncc(O[C@H]3C[C@H](Oc4cc(N5C6CCC5CN(c5cc(-c7ccccc7O)nnc5N)C6)ccn4)C3)cn2)no1 [compound 387, (2S,4R)-1-((2R)-2-(3-((3-(5-((1r,3R)-3-((4-(3-(3-amino-6-(2-hydroxyphenyl)pyridazin-4-yl)-3,8-diazabicyclo[3.2.1]octan-8-yl)pyridin-2-yl)oxy)cyclobutoxy)pyrimidin-2-yl)prop-2-yn-1-yl)oxy)isoxazol-5-yl)-3-methylbutanoyl)-N-((S)-1-(4-cyanophenyl)ethyl)-4-hydroxypyrrolidine-2-carboxamide] |  | < 0.0025 | > 75 |
| Cc1ncsc1-c1ccc([C@H](C)NC(=O)[C@@H]2C[C@@H](O)CN2C(=O)[C@@H](c2cc(OCCN[C@H]3CC[C@@H](O[C@H]4C[C@@H](Oc5cc(N6C7CCC6CN(c6cc(-c8ccccc8O)nnc6N)C7)ccn5)C4)CC3)no2)C(C)C)cn1 [compound 388, (2S,4R)-1-((2R)-2-(3-(2-(((1S,4S)-4-((1r,3S)-3-((4-(3-(3-amino-6-(2-hydroxyphenyl)pyridazin-4-yl)-3,8-diazabicyclo[3.2.1]octan-8-yl)pyridin-2-yl)oxy)cyclobutoxy)cyclohexyl)amino)ethoxy)isoxazol-5-yl)-3-methylbutanoyl)-4-hydroxy-N-((S)-1-(6-(4-methylthiazol-5-yl)pyridin-3-yl)ethyl)pyrrolidine-2-carboxamide] |  | 0.0025 to 0.01 | > 75 |
| Cc1ncsc1-c1ccc([C@H](C)NC(=O)[C@@H]2C[C@@H](O)CN2C(=O)[C@H](c2cc(OCCCCN3CCN(CCCCOc4cc(N5C6CCC5CN(c5cc(-c7ccccc7O)nnc5N)C6)ccn4)CC3)no2)C(C)C)cc1 [compound 389, (2S,4R)-1-((2S)-2-(3-(4-(4-(4-((4-(3-(3-amino-6-(2-hydroxyphenyl)pyridazin-4-yl)-3,8-diazabicyclo[3.2.1]octan-8-yl)pyridin-2-yl)oxy)butyl)piperazin-1-yl)butoxy)isoxazol-5-yl)-3-methylbutanoyl)-4-hydroxy-N-((S)-1-(4-(4-methylthiazol-5-yl)phenyl)ethyl)pyrrolidine-2-carboxamide] |  | 0.01 to 0.03 | > 75 |
| Cc1ncsc1-c1ccc([C@H](C)NC(=O)[C@@H]2C[C@@H](O)CN2C(=O)[C@@H](c2cc(OCCCCN3CCN(CCCCOc4cc(N5C6CCC5CN(c5cc(-c7ccccc7O)nnc5N)C6)ccn4)CC3)no2)C(C)C)cc1 [compound 390, (2S,4R)-1-((2R)-2-(3-(4-(4-(4-((4-(3-(3-amino-6-(2-hydroxyphenyl)pyridazin-4-yl)-3,8-diazabicyclo[3.2.1]octan-8-yl)pyridin-2-yl)oxy)butyl)piperazin-1-yl)butoxy)isoxazol-5-yl)-3-methylbutanoyl)-4-hydroxy-N-((S)-1-(4-(4-methylthiazol-5-yl)phenyl)ethyl)pyrrolidine-2-carboxamide] |  | < 0.0025 | > 75 |
| Cc1ncsc1-c1ccc([C@H](C)NC(=O)[C@@H]2C[C@@H](O)CN2C(=O)[C@H](c2cc(OC/C=C/c3ncc(O[C@H]4C[C@H](Oc5cc(N6C7CCC6CN(c6cc(-c8ccccc8O)nnc6N)C7)ccn5)C4)cn3)no2)C(C)C)cc1 [compound 391, (2S,4R)-1-((2S)-2-(3-(((E)-3-(5-((1r,3S)-3-((4-(3-(3-amino-6-(2-hydroxyphenyl)pyridazin-4-yl)-3,8-diazabicyclo[3.2.1]octan-8-yl)pyridin-2-yl)oxy)cyclobutoxy)pyrimidin-2-yl)allyl)oxy)isoxazol-5-yl)-3-methylbutanoyl)-4-hydroxy-N-((S)-1-(4-(4-methylthiazol-5-yl)phenyl)ethyl)pyrrolidine-2-carboxamide] |  | > 0.03 |  |
| Cc1ncsc1-c1ccc([C@H](C)NC(=O)[C@@H]2C[C@@H](O)CN2C(=O)[C@@H](c2cc(OC/C=C/c3ncc(O[C@H]4C[C@H](Oc5cc(N6C7CCC6CN(c6cc(-c8ccccc8O)nnc6N)C7)ccn5)C4)cn3)no2)C(C)C)cc1 [compound 392, (2S,4R)-1-((2R)-2-(3-(((E)-3-(5-((1r,3R)-3-((4-(3-(3-amino-6-(2-hydroxyphenyl)pyridazin-4-yl)-3,8-diazabicyclo[3.2.1]octan-8-yl)pyridin-2-yl)oxy)cyclobutoxy)pyrimidin-2-yl)allyl)oxy)isoxazol-5-yl)-3-methylbutanoyl)-4-hydroxy-N-((S)-1-(4-(4-methylthiazol-5-yl)phenyl)ethyl)pyrrolidine-2-carboxamide] |  | < 0.0025 | > 75 |
| Cc1nccn1-c1ccc([C@H](C)NC(=O)[C@@H]2C[C@@H](O)CN2C(=O)[C@H](c2cc(OCC#Cc3ncc(O[C@H]4C[C@H](Oc5cc(N6C7CCC6CN(c6cc(-c8ccccc8O)nnc6N)C7)ccn5)C4)cn3)no2)C(C)C)cc1 [compound 393, (2S,4R)-1-((2S)-2-(3-((3-(5-((1r,3S)-3-((4-(3-(3-amino-6-(2-hydroxyphenyl)pyridazin-4-yl)-3,8-diazabicyclo[3.2.1]octan-8-yl)pyridin-2-yl)oxy)cyclobutoxy)pyrimidin-2-yl)prop-2-yn-1-yl)oxy)isoxazol-5-yl)-3-methylbutanoyl)-4-hydroxy-N-((S)-1-(4-(2-methyl-1H-imidazol-1-yl)phenyl)ethyl)pyrrolidine-2-carboxamide] |  | > 0.03 | > 75 |
| Cc1nccn1-c1ccc([C@H](C)NC(=O)[C@@H]2C[C@@H](O)CN2C(=O)[C@@H](c2cc(OCC#Cc3ncc(O[C@H]4C[C@H](Oc5cc(N6C7CCC6CN(c6cc(-c8ccccc8O)nnc6N)C7)ccn5)C4)cn3)no2)C(C)C)cc1 [compound 394, (2S,4R)-1-((2R)-2-(3-((3-(5-((1r,3R)-3-((4-(3-(3-amino-6-(2-hydroxyphenyl)pyridazin-4-yl)-3,8-diazabicyclo[3.2.1]octan-8-yl)pyridin-2-yl)oxy)cyclobutoxy)pyrimidin-2-yl)prop-2-yn-1-yl)oxy)isoxazol-5-yl)-3-methylbutanoyl)-4-hydroxy-N-((S)-1-(4-(2-methyl-1H-imidazol-1-yl)phenyl)ethyl)pyrrolidine-2-carboxamide] |  | < 0.0025 | > 75 |
